Test [1] has as its target T1, NDM-1 (Klebsiella pneumoniae, UniProt C7C422). Nature of the test: biochemical. The settings on record: cleavage of imipenem (100 uM) by NDM-1; read-out: Ki, Imipenem.
Test [2] has as its target T2, purified class A, C and D enzymes (UniProt P0AD64, L31Q/G234S/E235K, species not given).
T2 construct: Ki (SHV-12, NCF); other: purified SHV-12; nitrocefin reporter substrate
T2 sequence (P0AD64 1-286 L31Q/G234S/E235K): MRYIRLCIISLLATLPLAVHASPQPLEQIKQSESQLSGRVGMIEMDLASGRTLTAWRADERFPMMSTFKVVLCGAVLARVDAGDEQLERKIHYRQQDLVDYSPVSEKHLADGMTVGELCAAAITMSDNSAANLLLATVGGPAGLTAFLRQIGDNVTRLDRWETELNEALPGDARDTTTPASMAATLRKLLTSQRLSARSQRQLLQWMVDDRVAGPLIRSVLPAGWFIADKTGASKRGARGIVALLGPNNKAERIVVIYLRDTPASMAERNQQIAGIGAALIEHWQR
It counts as biochemical. The settings on record: read-out: Ki (SHV-12, NCF); purified SHV-12; nitrocefin reporter substrate.

Test [3] deals with purified class A, C and D enzymes (Escherichia coli, UniProt Q9L5C7). It counts as biochemical. The settings on record: purified CTX-M-14; nitrocefin reporter substrate.
Test [4] concerns the target T3, purified class A, C and D enzymes (UniProt Q6XEC0).
T3 construct: rows headed: Ki (OXA-48, NCF); other: purified OXA-48; nitrocefin reporter substrate
It counts as biochemical. To be noted: read-out: Ki (OXA-48, NCF); purified OXA-48; nitrocefin reporter substrate.

In test [5] the target is T4, purified class A, C and D enzymes (UniProt Q9F663).
T4 construct: rows headed: Ki (KPC-2, NCF); other: purified KPC-2; nitrocefin reporter substrate
It counts as biochemical. To be noted: read-out: Ki (KPC-2, NCF); purified KPC-2; nitrocefin reporter substrate.

Test [6] concerns the target purified class A, C and D enzymes (Enterobacter cloacae, UniProt P05364). It counts as biochemical. The settings on record: purified P99/AmpC of ECL; nitrocefin reporter substrate.
Another test addresses T5, VIM-1 (Pseudomonas aeruginosa, UniProt A0A0F7KYQ8).
T5 construct: made in house; host or cells: ECM6711 strain carrying pUCP24-VIM-1 plasmid; culture supernatant used unpurified
As to the kind of experiment: biochemical. To be noted: cleavage of nitrocefin (200 uM) by VIM-1 supernatant.

The target of test [7] is T1, NDM-1. As to the kind of experiment: Inhibition of purified class B carbapenemase NDM-1 (Ki, imipenem substrate). It counts as biochemical. To be noted: NDM-1, substrate imipenem; read-out: Ki NDM-1, Imipenem.

Chain of purified class A, C and D enzymes (Enterobacter cloacae, UniProt P05364) (P05364 21-381): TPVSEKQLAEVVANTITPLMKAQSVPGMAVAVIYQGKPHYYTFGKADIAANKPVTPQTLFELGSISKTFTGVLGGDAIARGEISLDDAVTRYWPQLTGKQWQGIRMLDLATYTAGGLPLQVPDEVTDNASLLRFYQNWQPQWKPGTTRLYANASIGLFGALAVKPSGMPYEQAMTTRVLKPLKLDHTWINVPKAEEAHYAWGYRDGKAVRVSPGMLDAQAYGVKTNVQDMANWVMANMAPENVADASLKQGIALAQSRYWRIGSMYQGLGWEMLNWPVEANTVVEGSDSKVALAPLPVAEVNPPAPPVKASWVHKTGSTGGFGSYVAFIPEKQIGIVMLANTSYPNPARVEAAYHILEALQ
T1 sequence (C7C422 29-270, looked up, species assumed): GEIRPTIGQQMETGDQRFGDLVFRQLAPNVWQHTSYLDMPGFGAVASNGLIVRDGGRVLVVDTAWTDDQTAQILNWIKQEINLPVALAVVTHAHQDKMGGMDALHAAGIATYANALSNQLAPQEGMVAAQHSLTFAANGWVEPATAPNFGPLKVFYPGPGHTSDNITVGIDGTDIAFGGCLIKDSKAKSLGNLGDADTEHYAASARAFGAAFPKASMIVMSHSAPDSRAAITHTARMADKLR
Chain of purified class A, C and D enzymes (Escherichia coli, UniProt Q9L5C7) (Q9L5C7 entry or part of it): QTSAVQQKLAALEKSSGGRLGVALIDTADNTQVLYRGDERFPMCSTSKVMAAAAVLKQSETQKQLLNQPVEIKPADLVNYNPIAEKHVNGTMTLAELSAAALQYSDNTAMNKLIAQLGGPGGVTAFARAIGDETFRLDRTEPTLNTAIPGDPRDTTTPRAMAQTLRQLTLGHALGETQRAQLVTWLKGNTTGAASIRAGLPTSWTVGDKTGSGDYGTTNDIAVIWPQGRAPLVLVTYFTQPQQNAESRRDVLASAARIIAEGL

Consider `COc1ccc2c(c1C(=O)O)OB(O)[C@@H](Sc1nnc(N(CCN)CCN)s1)C2` [Compound 101, (3R)-3-[[5-[bis(2-aminoethyl)amino]-1,3,4-thiadiazol-2-yl]sulfanyl]-2-hydroxy-7-methoxy-3,4-dihydro-1,2-benzoxaborinine-8-carboxylic acid], for which the Ki on NDM-1 [1] is less than 10 nM; in test [2] it was less than 100 nM; in test [4] it was less than 100 nM; in test [5] it was 100 to 1000 nM; at NDM-1 [7], less than 10 nM. Also, the “Ki (CTX-M-14, NCF)” value in test [3] is listed as “X (Less than 0.1 μM)”. Further, the “Ki (P99/AmpC of ECL, NCF)” value in test [6] is given as “Z (Greater than 1 μM)”. The compound further gave a half-inhibitory concentration (IC50) against VIM-1 of less than 1000 nM.

For `COc1ccc2c(c1C(=O)O)OB(O)[C@@H](Sc1nnc(NC(CN)CN)s1)C2` [Compound 102, (3R)-3-[[5-[[2-amino-1-(aminomethyl)ethyl]amino]-1,3,4-thiadiazol-2-yl]sulfanyl]-2-hydroxy-7-methoxy-3,4-dihydro-1,2-benzoxaborinine-8-carboxylic acid], the Ki on NDM-1 [1] is less than 10 nM; in test [2], less than 100 nM; in test [4], 100 to 1000 nM; in test [5], greater than 1000 nM; at NDM-1 [7], less than 10 nM. Further, the “Ki (CTX-M-14, NCF)” value in test [3] was “X (Less than 0.1 μM)”. Further, the “Ki (P99/AmpC of ECL, NCF)” value in test [6] is given as “Z (Greater than 1 μM)”. This compound returned an IC50 against VIM-1 of less than 1000 nM.

For the compound `COc1ccc2c(c1C(=O)O)OB(O)[C@@H](Sc1nnc(N[C@H]3CCNC3)s1)C2` [Compound 103, (3R)-2-hydroxy-7-methoxy-3-[[5-[[(3S)-pyrrolidin-3-yl]amino]-1,3,4-thiadiazol-2-yl]sulfanyl]-3,4-dihydro-1,2-benzoxaborinine-8-carboxylic acid], the Ki at NDM-1 [1] is less than 10 nM; in test [2], less than 100 nM; in test [4] it was less than 100 nM; in test [5], 100 to 1000 nM; on NDM-1 [7] it was less than 10 nM. Also, the “Ki (CTX-M-14, NCF)” value in test [3] was “X (Less than 0.1 μM)”. The “Ki (P99/AmpC of ECL, NCF)” value in test [6] was “Y (0.1 μM to 1 μM)”. Besides, at VIM-1, the IC50 was less than 1000 nM.

As for `COc1ccc2c(c1C(=O)O)OB(O)[C@@H](Sc1nnc(NC3CCNCC3)s1)C2` [Compound 104, (3R)-2-hydroxy-7-methoxy-3-[[5-(4-piperidylamino)-1,3,4-thiadiazol-2-yl]sulfanyl]-3,4-dihydro-1,2-benzoxaborinine-8-carboxylic acid], the Ki on NDM-1 [1] was less than 10 nM; in test [2], less than 100 nM; in test [4], less than 100 nM; in test [5], less than 100 nM; at NDM-1 [7], less than 10 nM. Also, the “Ki (CTX-M-14, NCF)” value in test [3] was “X (Less than 0.1 μM)”. In test [6], the “Ki (P99/AmpC of ECL, NCF)” value is “Y (0.1 μM to 1 μM)”. Further, on VIM-1, the IC50 is less than 1000 nM.

In the case of `COc1ccc2c(c1C(=O)O)OB(O)[C@@H](Sc1nnc(NCCNC3CNC3)s1)C2` [Compound 105, (3R)-3-[[5-[2-(azetidin-3-ylamino)ethylamino]-1,3,4-thiadiazol-2-yl]sulfanyl]-2-hydroxy-7-methoxy-3,4-dihydro-1,2-benzoxaborinine-8-carboxylic acid], the Ki is less than 10 nM on NDM-1 [1]; less than 100 nM in test [2]; less than 100 nM in test [4]; 100 to 1000 nM in test [5]; less than 10 nM at NDM-1 [7]. Also, the “Ki (CTX-M-14, NCF)” value in test [3] is listed as “X (Less than 0.1 μM)”. In test [6], the “Ki (P99/AmpC of ECL, NCF)” value is “Y (0.1 μM to 1 μM)”. The IC50 against VIM-1 is less than 1000 nM.

Regarding `COc1ccc2c(c1C(=O)O)OB(O)[C@@H](Sc1nnc(SCCN)s1)C2` [Compound 107, (3R)-3-[[5-(2-aminoethylsulfanyl)-1,3,4-thiadiazol-2-yl]sulfanyl]-2-hydroxy-7-methoxy-3,4-dihydro-1,2-benzoxaborinine-8-carboxylic acid], the inhibition constant Ki on NDM-1 [1] was less than 10 nM; in test [2], less than 100 nM; in test [4] it was less than 100 nM; in test [5], 100 to 1000 nM; at NDM-1 [7], less than 10 nM. In addition, the “Ki (CTX-M-14, NCF)” value in test [3] is recorded as “X (Less than 0.1 μM)”. Besides, the “Ki (P99/AmpC of ECL, NCF)” value in test [6] was “Y (0.1 μM to 1 μM)”. Moreover, the IC50 on VIM-1 was less than 1000 nM.

On to `COc1ccc2c(c1C(=O)O)OB(O)[C@@H](Sc1nnc(SC3CNC3)s1)C2` [Compound 108, (3R)-3-[[5-(azetidin-3-ylsulfanyl)-1,3,4-thiadiazol-2-yl]sulfanyl]-2-hydroxy-7-methoxy-3,4-dihydro-1,2-benzoxaborinine-8-carboxylic acid], for which the Ki at NDM-1 [1] was 10 to 100 nM; in test [2], less than 100 nM; in test [4], less than 100 nM; in test [5], 100 to 1000 nM; at NDM-1 [7], 10 to 100 nM. The “Ki (CTX-M-14, NCF)” value in test [3] is “X (Less than 0.1 μM)”. Moreover, the “Ki (P99/AmpC of ECL, NCF)” value in test [6] was “Y (0.1 μM to 1 μM)”. Also, at VIM-1, the IC50 was less than 1000 nM.

For `COc1ccc2c(c1C(=O)O)OB(O)[C@@H](Sc1nnc(SC(CN)CN)s1)C2` [Compound 109, (3R)-3-[[5-[2-amino-1-(aminomethyl)ethyl]sulfanyl-1,3,4-thiadiazol-2-yl]sulfanyl]-2-hydroxy-7-methoxy-3,4-dihydro-1,2-benzoxaborinine-8-carboxylic acid], the Ki on NDM-1 [1] was less than 10 nM; in test [2] it was less than 100 nM; in test [4] it was less than 100 nM; in test [5] it was 100 to 1000 nM; at NDM-1 [7], less than 10 nM. Besides, the “Ki (CTX-M-14, NCF)” value in test [3] is listed as “X (Less than 0.1 μM)”. Further, in test [6], the “Ki (P99/AmpC of ECL, NCF)” value was “Y (0.1 μM to 1 μM)”. Further, the IC50 against VIM-1 is less than 1000 nM.

Consider `COc1ccc2c(c1C(=O)O)OB(O)[C@@H](Sc1nnc(SCCN3CCOCC3)s1)C2` [Compound 110, (3R)-2-hydroxy-7-methoxy-3-[[5-(2-morpholinoethylsulfanyl)-1,3,4-thiadiazol-2-yl]sulfanyl]-3,4-dihydro-1,2-benzoxaborinine-8-carboxylic acid], for which the Ki on NDM-1 [1] is greater than 100 nM; in test [2], less than 100 nM; in test [4] it was less than 100 nM; in test [5], less than 100 nM; at NDM-1 [7], greater than 100 nM. Further, the “Ki (CTX-M-14, NCF)” value in test [3] is listed as “X (Less than 0.1 μM)”. Further, the “Ki (P99/AmpC of ECL, NCF)” value in test [6] is “Y (0.1 μM to 1 μM)”. Besides, the IC50 against VIM-1 is less than 1000 nM.

For the compound `COc1ccc2c(c1C(=O)O)OB(O)[C@@H](Sc1nnc(Sc3nnc(N)s3)s1)C2` [Compound 111, (3R)-3-[[5-[(5-amino-1,3,4-thiadiazol-2-yl)sulfanyl]-1,3,4-thiadiazol-2-yl]sulfanyl]-2-hydroxy-7-methoxy-3,4-dihydro-1,2-benzoxaborinine-8-carboxylic acid], the Ki at NDM-1 [1] is greater than 100 nM; in test [2], less than 100 nM; in test [4], greater than 1000 nM; in test [5], 100 to 1000 nM; on NDM-1 [7], greater than 100 nM. In addition, the “Ki (CTX-M-14, NCF)” value in test [3] is listed as “X (Less than 0.1 μM)”. For the same compound, in test [6], the “Ki (P99/AmpC of ECL, NCF)” value was “Y (0.1 μM to 1 μM)”. This compound came in with an IC50 on VIM-1 of less than 1000 nM.

On to `COc1ccc2c(c1C(=O)O)OB(O)[C@@H](Sc1nnc(SC3CCNCC3)s1)C2` [Compound 112, (3R)-2-hydroxy-7-methoxy-3-[[5-(4-piperidylsulfanyl)-1,3,4-thiadiazol-2-yl]sulfanyl]-3,4-dihydro-1,2-benzoxaborinine-8-carboxylic acid], for which the Ki was 10 to 100 nM at NDM-1 [1]; less than 100 nM in test [2]; less than 100 nM in test [4]; less than 100 nM in test [5]; 10 to 100 nM at NDM-1 [7]. Further, the “Ki (CTX-M-14, NCF)” value in test [3] is on record as “X (Less than 0.1 μM)”. The “Ki (P99/AmpC of ECL, NCF)” value in test [6] was “X (Less than 0.1 μM)”. The compound also had an IC50 on VIM-1 of less than 1000 nM.

`COc1ccc2c(c1C(=O)O)OB(O)[C@@H](Sc1nnc(SCCCN)s1)C2` [Compound 113, (3R)-3-[[5-(3-aminopropylsulfanyl)-1,3,4-thiadiazol-2-yl]sulfanyl]-2-hydroxy-7-methoxy-3,4-dihydro-1,2-benzoxaborinine-8-carboxylic acid]: the inhibition constant (Ki) is less than 10 nM at NDM-1 [1]; less than 100 nM in test [2]; less than 100 nM in test [4]; less than 100 nM in test [5]; less than 10 nM at NDM-1 [7]. Further, in test [3], the “Ki (CTX-M-14, NCF)” value is “X (Less than 0.1 μM)”. In addition, the “Ki (P99/AmpC of ECL, NCF)” value in test [6] was “X (Less than 0.1 μM)”. Moreover, the IC50 against VIM-1 was less than 1000 nM.

The record behind these values is patent US10206937B2, “Boronic acid derivatives and therapeutic uses thereof” (Qpex Biopharma, Inc., priority 2014, dated 2019).
